From ChEMBL document CHEMBL1201862, “PubChem BioAssay data set” (2004) come the findings set out here.

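A five-concentration, 48-hour dose response in 96-well plates underlies each endpoint, interpolated linearly between surrounding concentrations. GI50: concentration for 50% inhibition of growth.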 Activity calls are given as the source filed them. Rule as the data show it: active = GI50 up to about 1.1 µM and inactive = higher. Some results are limits rather than exact numbers.

Holding throughout (assay): inhibition of tumour cell growth, NCI panel, 48 h
Assay [1] concerns RXF 631.
Assay [2] relates to HOP-18.
In assay [3] the test system is DMS-114.
For assay [4], the system named is LXFL 529.
The test system of assay [5] is KM-20L2.
For assay [6], the system named is DLD-1.
Assay [7] concerns SNB-78.
Assay [8] relates to M19-MEL.
Assay [9] relates to XF498.

Take `C/C(=N\N=C(\N)S)c1ccc(Oc2ccccc2)cc1`: the GI50 in assay [1] is 13.8 µM (inactive); in assay [2] it was 14.1 µM (inactive); in assay [3] it was 3.03 µM (inactive); in assay [4], 3.96 µM (inactive); in assay [5], 10.7 µM (inactive); in assay [6], 3.44 µM (inactive). Besides, the GI50 in assay [7] was 14.2 µM (inactive); in [8], 15.1 µM (inactive).
For the compound `O=C1/C(=C/c2ccccc2)CN(C(=O)/C=C/c2ccccc2)C/C1=C\c1ccccc1`, the GI50 in assay [1] is 27.1 µM (inactive); in [2], 33.7 µM (inactive); in assay [4] it was 8.05 µM (inactive); in assay [5], 12.8 µM (inactive); in assay [6], 4.14 µM (inactive); in [9], 18.6 µM (inactive). Also, the results for the GI50 in assay [7] and in assay [8] were 22 µM (inactive) and 5.22 µM (inactive), respectively.
Regarding `O=C(C#Cc1ccccc1)Nc1ccccc1CC(c1c[nH]c2ccccc12)c1c[nH]c2ccccc12`, the GI50 was 21.3 µM (inactive) in assay [1]; 6.35 µM (inactive) in assay [4]; 17 µM (inactive) in assay [6]; 29.4 µM (inactive) in [9]; 11.5 µM (inactive) in [7]; 16.4 µM (inactive) in assay [8].
As for `O=C1c2cccc3cc([N+](=O)[O-])cc(c23)C(=O)N1CCCN1CCN(CCCN2C(=O)c3cccc4cc([N+](=O)[O-])cc(c34)C2=O)CC1`, the GI50 in assay [1] was 0.0344 µM (active); in [2], 1.77 µM (inactive); in assay [4] it was 0.0349 µM (active); in [5] it was 0.45 µM (active); in [6] it was 0.0453 µM (active); in assay [9] it was 0.0966 µM (active). For the same compound, the GI50 was 0.303 µM (active) in assay [7] and 0.0931 µM (active) in [8].
As to `CC(N)C(=O)c1ccc(O)cc1` (stereo not given), the GI50 in [1], in assay [2], in assay [3], in assay [4], in assay [5] and in [6] was > 100 µM (inactive) each time. In [7], the GI50 is > 100 µM (inactive).
Turning to `CCCOC(=O)C1CCC(=O)N1C(=O)C(C)Cl` (stereo not given), the GI50 in assay [2], in assay [3], in [4], in assay [5], in assay [6] and in assay [9] was > 100 µM (inactive) each time. For the same compound, the GI50 in [7] and in assay [8] was > 100 µM (inactive) throughout.
With `O=C(O)CNCc1c2ccccc2[n+]([O-])c2ccccc12`, the GI50 in assay [1] is 83.4 µM (inactive); in assay [2], 52.7 µM (inactive); in [3], 25.9 µM (inactive); in assay [4] it was 27.7 µM (inactive); in assay [5] it was 42.4 µM (inactive); in assay [6], 39.4 µM (inactive). The GI50 was 92.3 µM (inactive) in assay [7] and 85.7 µM (inactive) in assay [8].
Take `CC1CN1P1(N2CC2C)=NP(N2CC2C)(N2CC2C)=NP(N2CC2C)(N2CC2C)=N1` (stereo not given): the GI50 in assay [2], in assay [4], in assay [5], in [6], in [9] and in assay [8] was > 50 µM (inactive) each time.
As for `COc1ccc(OC)c(NC(=O)C2=C(C)NC(C)=C(C(=O)Nc3cc(OC)ccc3OC)C2c2ccco2)c1`, the GI50 in [3], in [4], in assay [5], in assay [6], in assay [9] and in assay [7] was > 100 µM (inactive) throughout. The GI50 in [8] is > 100 µM (inactive).
Regarding `CC12OC(=O)C(C#N)C1(C)C1C(=O)CCCC12` (stereo not given), the GI50 in assay [2], in assay [3], in [4], in assay [5], in assay [6] and in assay [9] was > 100 µM (inactive) each time. Also, in [8], the GI50 was > 100 µM (inactive).
`CCOC(=O)c1c[nH]c2c(ccc3ncccc32)c1=O`: the GI50 in [2], in [3], in assay [4], in assay [5], in [6] and in assay [7] was > 100 µM (inactive) throughout. For the same compound, the GI50 in [8] was > 100 µM (inactive).
Regarding `C[C@]12CC[C@H](O)CC1=CC[C@@H]1C2CC[C@]2(C)C(=O)N(N)C(=O)CC12` (stereo not given in full), the GI50 in [1], in assay [2], in assay [4], in [5], in assay [6] and in assay [9] was > 100 µM (inactive) each time. For the same compound, the GI50 in [7] and in [8] was > 100 µM (inactive) each time.
For `N/C(=C\c1ccc(OCc2ccccc2)c(OCc2ccccc2)c1[N+](=O)[O-])C(=O)O`, the GI50 in assay [2], in assay [4], in assay [5], in assay [6], in assay [7] and in assay [8] was > 100 µM (inactive) in each case.
As to `COc1cc2c3c(c1OCc1ccccc1)NCCC3NCC2` (stereo not given), the GI50 in [1], in assay [3], in assay [4], in assay [5], in [6] and in assay [9] was > 100 µM (inactive) in each case. Besides, the GI50 in assay [7] and in assay [8] was > 100 µM (inactive) in each case.
For `CCN(CC)c1ccc(C2N3CCCCC3[C@@H]3c4[nH]c5ccccc5c4CCN23)cc1` (stereo not given in full), the GI50 is > 100 µM (inactive) in assay [2]; 14 µM (inactive) in assay [3]; 21.3 µM (inactive) in assay [4]; 29.3 µM (inactive) in [5]; 26 µM (inactive) in assay [6]; 17.1 µM (inactive) in [9]. The GI50 in [7] is 22.1 µM (inactive); in [8], 23.7 µM (inactive).
`CCCCN(CCCC)CC(C(=O)Nc1ccc([N+](=O)[O-])cc1[N+](=O)[O-])/C(C)=N\NC(=S)NN` (stereo not given): the GI50 in [3], in [4], in assay [5], in assay [6], in assay [9] and in assay [8] was > 100 µM (inactive) in each case.
As for `CN(C)c1nc(N(C)C)nc(N(C)CN(C)c2nc(N(C)C)nc(N(C)C)n2)n1`, the GI50 was > 100 µM (inactive) in assay [2]; > 100 µM (inactive) in assay [3]; 77.6 µM (inactive) in assay [4]; > 100 µM (inactive) in assay [5]; > 100 µM (inactive) in assay [6]; > 100 µM (inactive) in assay [7]. Moreover, in assay [8], the GI50 is > 100 µM (inactive).
On to `C[N+](C)(C)CC(=O)N/N=C(\C(=O)NC1=C(Cl)C(=O)c2ccccc2C1=O)C(C#N)c1nc(-c2ccc([N+](=O)[O-])cc2)cs1` (stereo not given), for which the GI50 was 6.4 µM (inactive) in assay [2]; 3.26 µM (inactive) in assay [3]; 7.91 µM (inactive) in assay [4]; 14 µM (inactive) in assay [5]; 11.3 µM (inactive) in [6]; 9.46 µM (inactive) in [9]. Also, the figures for the GI50 in [7] and in assay [8] were 11.3 µM (inactive) and 0.889 µM (active), respectively.
In the case of `O=C1/C(=C/c2ccc3c(c2)OCO3)CCC1CN1CCOCC1` (stereo not given), the GI50 in assay [1] was 15.8 µM (inactive); in [2] it was 17.3 µM (inactive); in assay [3], 5.83 µM (inactive); in [4], 2.65 µM (inactive); in [5], 14.8 µM (inactive); in [6], 2.39 µM (inactive). Also, the GI50 in assay [7] is 9.66 µM (inactive); in assay [8] it was 4.53 µM (inactive).
Consider `O[C@]12CCCC[C@H]1CCC2`, for which the GI50 in assay [1], in [3], in [4], in assay [9], in [7] and in assay [8] was > 100 µM (inactive) throughout.
As for `COc1cc(C2c3cc4c(cc3[C@@H](NCCN3CCCCC3)C3COC(=O)[C@H]23)OCO4)cc(OC)c1O` (stereo not given in full), the GI50 in [2] was 0.303 µM (active); in assay [4], 1.8 µM (inactive); in assay [5] it was 1.17 µM (inactive); in assay [6], 1.58 µM (inactive); in [7], 2.57 µM (inactive); in [8] it was 0.805 µM (active).
As to `COC(=O)CC(C(C(=O)OC)C(=O)OC)N1C(=O)OC(c2ccccc2)C1c1ccccc1` (stereo not given), the GI50 in assay [2] was > 100 µM (inactive); in assay [3] it was 45.6 µM (inactive); in [4], > 100 µM (inactive); in [5] it was > 100 µM (inactive); in assay [6] it was 68.5 µM (inactive); in assay [8], > 100 µM (inactive).
As to `CC1=C(N(C)C)C(=O)c2nc3n(c2C1=O)CCC3OC(N)=O` (stereo not given), the GI50 was 17.7 µM (inactive) in [2]; 16.1 µM (inactive) in assay [3]; 20.2 µM (inactive) in assay [5]; 16.2 µM (inactive) in assay [6]; 23.9 µM (inactive) in [9]; 23 µM (inactive) in assay [7]. Also, in assay [8], the GI50 was 1.7 µM (inactive).
`Cc1c(O)c(=O)ccn1CCO`: the GI50 in assay [2], in assay [3], in assay [4], in assay [5], in [6] and in assay [9] was > 100 µM (inactive) each time. Besides, the GI50 in assay [7] and in [8] was > 100 µM (inactive) in each case.
As for `Cc1c(O)c(=O)ccn1CCN`, the GI50 in assay [1], in [2], in assay [3], in assay [4], in [5] and in assay [6] was > 100 µM (inactive) each time. Also, the GI50 in assay [7] and in assay [8] was > 100 µM (inactive) each time.
